Measured values reported in patent US20140045873A1, “NOVEL MICROBIOCIDES” (SYNGENTA PARTICIPATIONS AG, priority 2010, published 2014).
Read-outs that look alike come from different tables or passages of the source.

What was measured:
[1] = test system: Glomerella lagenarium (Colletotrichum lagenarium); assay: Glomerella lagenarium (Colletotrichum lagenarium) / liquid culture (anthracnose); type: cell-based; details: Colletotrichum orbiculare, read-out: control of Glomerella lagenarium (inhibition of growth, photometric)
[2] = test system: Thanatephorus cucumeris (Rhizoctonia solani); details: read-out: control of Thanatephorus cucumeris (inhibition of growth, photometric)
[3] = test system: Phaeosphaeria nodorum (Septoria nodorum); details: Parastagonospora nodorum, in Triticum aestivum, foliar, read-out: control of Phaeosphaeria nodorum (percent disease control compared to untreated)
[4] = test system: Mycosphaerella graminicola (Septoria tritici); assay: Mycosphaerella graminicola (Septoria tritici) / liquid culture (Septoria blotch); type: cell-based; details: Zymoseptoria tritici, read-out: control of Mycosphaerella graminicola (inhibition of growth, photometric)
[5] = test system: Botryotinia fuckeliana (Botrytis cinerea); assay: Botryotinia fuckeliana (Botrytis cinerea) / liquid culture (gray mould); type: cell-based; details: Vogels broth, 24° C., 3-4 days after application, read-out: control of Botryotinia fuckeliana (inhibition of growth, photometric)
From the text: Botryotinia Fuckeliana (Botrytis cinerea)/Liquid Culture (Gray Mould): Conidia of the fungus from cryogenic storage were directly mixed into nutrient broth (Vogels broth). […].45

[6] = test system: Mycosphaerella arachidis (Cercospora arachidicola); assay: Mycosphaerella arachidis (Cercospora arachidicola) / liquid culture (early leaf spot); type: cell-based; details: read-out: control of Mycosphaerella arachidis (inhibition of growth, photometric)
[7] = test system: Monographella nivalis (Microdochium nivale); assay: Monographella nivalis (Microdochium nivale) / liquid culture (foot rot cereals); type: cell-based; details: PDB, 24° C., 4-5 days after application, read-out: control of Monographella nivalis (inhibition of growth, photometric)
[8] = test system: Gaeumannomyces graminis; assay: Gaeumannomyces graminis / liquid culture (take-all of cereals); type: cell-based; details: read-out: control of Gaeumannomyces graminis (inhibition of growth, photometric)
[9] = test system: Pyrenophora teres; details: in Hordeum vulgare, foliar, read-out: control of Pyrenophora teres (disease control compared to untreated)
[10] = test system: Puccinia recondita f. sp. tritici; details: in Triticum aestivum, foliar, read-out: control of Puccinia recondita f. sp. tritici (percent disease control compared to untreated)
[11] = test system: Puccinia recondita f. sp. tritici; details: in Triticum aestivum, foliar, read-out: control of Puccinia recondita f. sp. tritici (percent disease control compared to untreated); remark: listed apart in the source
[12] = 200 ppm, liquid culture, PDB, 24° C., 3-4 days after application
[13] = 200 ppm, liquid culture, PDB, 24° C., 4-5 days after application

CCc1cc(Cl)c(C)c(-c2cccc(CCCO/N=C(\C)c3cccc(C)n3)n2)n1 [P.39]
≥ 80%: inhibition at 200 ppm [1, 12] | inhibition at 200 ppm [2] | pest or weed control at 200 ppm [3] | inhibition at 200 ppm [4, 13] | inhibition at 200 ppm [5] | inhibition at 200 ppm [6, 13] | inhibition at 200 ppm [7]

C/C(=N\OCCCc1cccc(-c2ccnc(-c3ccccc3)n2)n1)c1cccc(C)n1 [P.08]
≥ 80%: inhibition at 200 ppm [4, 13] | inhibition at 200 ppm [5] | inhibition at 200 ppm [6, 13] | inhibition at 200 ppm [8, 13]

C/C(=N\OCCCc1cccc(-c2ccncn2)n1)c1cccc(C)n1 [P.06]
≥ 80%: inhibition at 200 ppm [4, 13] | inhibition at 200 ppm [8, 13]

C/C(=N\OCCCc1cccc(-c2ccnc(Cc3ccccc3)n2)n1)c1cccc(C)n1 [P.10]
≥ 80%: inhibition at 200 ppm [4, 13] | pest or weed control at 200 ppm [9] | inhibition at 200 ppm [5] | inhibition at 200 ppm [6, 13] | inhibition at 200 ppm [8, 13]

CC(=O)c1ccc(-c2cccc(CCCO/N=C(\C)c3cccc(C)n3)n2)nc1C [P.20]
≥ 80%: pest or weed control at 200 ppm [3] | pest or weed control at 200 ppm [9] | inhibition at 200 ppm [6, 13] | inhibition at 200 ppm [8, 13]

CSc1nccc(-c2cccc(CCCO/N=C(\C)c3cccc(C)n3)n2)n1 [P.09]
≥ 80%: pest or weed control at 200 ppm [10] | pest or weed control at 200 ppm [3] | inhibition at 200 ppm [4, 13] | pest or weed control at 200 ppm [9] | inhibition at 200 ppm [5] | inhibition at 200 ppm [6, 13] | inhibition at 200 ppm [8, 13]

CCOc1cc(CC)nc(-c2cccc(CCCO/N=C(\C)c3cccc(C)n3)n2)c1C [P.34]
≥ 80%: pest or weed control at 200 ppm [10] | inhibition at 200 ppm [2] | pest or weed control at 200 ppm [11] | pest or weed control at 200 ppm [3] | inhibition at 200 ppm [4, 13] | pest or weed control at 200 ppm [9] | inhibition at 200 ppm [5] | inhibition at 200 ppm [6, 13]

CCON=C(C)c1ccc(-c2cccc(CCCO/N=C(\C)c3cccc(C)n3)n2)nc1C [P.23]
≥ 80%: pest or weed control at 200 ppm [10] | inhibition at 200 ppm [1, 12] | pest or weed control at 200 ppm [11] | pest or weed control at 200 ppm [3] | inhibition at 200 ppm [4, 13] | pest or weed control at 200 ppm [9] | inhibition at 200 ppm [5] | inhibition at 200 ppm [6, 13] | inhibition at 200 ppm [8, 13]

CCc1cc(Br)c(C)c(-c2cccc(CCCO/N=C(\C)c3cccc(C)n3)n2)n1 [P.41]
≥ 80%: inhibition at 200 ppm [1, 12] | pest or weed control at 200 ppm [3] | inhibition at 200 ppm [4, 13] | inhibition at 200 ppm [5] | inhibition at 200 ppm [6, 13] | inhibition at 200 ppm [7]

C/C(=N\OCCCc1cccc(-c2cc(O)cc(C)n2)n1)c1cccc(C)n1 [P.14, 1-(6-methyl-pyridin-2-yl)-ethanone-O-[3-(4′-hydroxy-6′-methyl-[2,2′]bipyridinyl-6-yl)-propyl]-oxime]
≥ 80%: inhibition at 200 ppm [4, 13] | inhibition at 200 ppm [6, 13] | inhibition at 200 ppm [8, 13]

C/C(=N\OCCCc1cccc(-c2ncccn2)n1)c1cccc(C)n1 [P.04]
≥ 80%: pest or weed control at 200 ppm [10] | inhibition at 200 ppm [2] | pest or weed control at 200 ppm [11] | pest or weed control at 200 ppm [3] | inhibition at 200 ppm [5] | inhibition at 200 ppm [6, 13]

C#CCOc1cc(CC)nc(-c2cccc(CCCO/N=C(\C)c3cccc(C)n3)n2)c1C [P.38]
≥ 80%: pest or weed control at 200 ppm [10] | inhibition at 200 ppm [1, 12] | inhibition at 200 ppm [2] | pest or weed control at 200 ppm [11] | pest or weed control at 200 ppm [3] | inhibition at 200 ppm [4, 13] | pest or weed control at 200 ppm [9] | inhibition at 200 ppm [5] | inhibition at 200 ppm [6, 13]

CCCOc1cc(CC)nc(-c2cccc(CCCO/N=C(\C)c3cccc(C)n3)n2)c1C [P.35]
≥ 80%: pest or weed control at 200 ppm [10] | inhibition at 200 ppm [1, 12] | inhibition at 200 ppm [2] | pest or weed control at 200 ppm [11] | pest or weed control at 200 ppm [3] | inhibition at 200 ppm [4, 13] | pest or weed control at 200 ppm [9] | inhibition at 200 ppm [5] | inhibition at 200 ppm [6, 13]

CCc1cc(OC)c(C)c(-c2cccc(CCCO/N=C(\C)c3cccc(C)n3)n2)n1 [P.33]
≥ 80%: pest or weed control at 200 ppm [10] | inhibition at 200 ppm [2] | pest or weed control at 200 ppm [11] | pest or weed control at 200 ppm [3] | inhibition at 200 ppm [4, 13] | pest or weed control at 200 ppm [9] | inhibition at 200 ppm [5] | inhibition at 200 ppm [6, 13]

C=CCOc1cc(CC)nc(-c2cccc(CCCO/N=C(\C)c3cccc(C)n3)n2)c1C [P.37]
≥ 80%: pest or weed control at 200 ppm [10] | inhibition at 200 ppm [1, 12] | inhibition at 200 ppm [2] | pest or weed control at 200 ppm [11] | pest or weed control at 200 ppm [3] | inhibition at 200 ppm [4, 13] | pest or weed control at 200 ppm [9] | inhibition at 200 ppm [5] | inhibition at 200 ppm [6, 13]

C/C(=N\OCCCc1cccc(-c2ccnc(C)n2)n1)c1cccc(C)n1 [P.03]
≥ 80%: pest or weed control at 200 ppm [10] | inhibition at 200 ppm [2] | pest or weed control at 200 ppm [3] | inhibition at 200 ppm [4, 13] | pest or weed control at 200 ppm [9] | inhibition at 200 ppm [5] | inhibition at 200 ppm [6, 13] | inhibition at 200 ppm [8, 13]

CCc1cc(OC(C)C)c(C)c(-c2cccc(CCCO/N=C(\C)c3cccc(C)n3)n2)n1 [P.36]
≥ 80%: pest or weed control at 200 ppm [10] | inhibition at 200 ppm [1, 12] | inhibition at 200 ppm [2] | pest or weed control at 200 ppm [11] | pest or weed control at 200 ppm [3] | inhibition at 200 ppm [4, 13] | pest or weed control at 200 ppm [9] | inhibition at 200 ppm [5] | inhibition at 200 ppm [6, 13]

C/C(=N\OCCCc1cccc(-c2nccc(C)n2)n1)c1cccc(C)n1 [P.02]
≥ 80%: pest or weed control at 200 ppm [10] | inhibition at 200 ppm [1] | inhibition at 200 ppm [2] | pest or weed control at 200 ppm [11] | pest or weed control at 200 ppm [3] | inhibition at 200 ppm [4] | pest or weed control at 200 ppm [9] | inhibition at 200 ppm [6] | inhibition at 200 ppm [8]
